Laboratory results from US20060223811A1, “Triglycerine depressant composition” (priority 2000, published 2006).

Test system: blood triglyceride levels
Experiment: Assay of blood triglyceride levels in dogs after 11 days of oral capsule administration (GK-GPO-POD method)
Settings: serum, relative ratio against averaged pre-dosing level (100), oral capsule once daily, mean of 5 dogs
[1] = Table 9, pravastatin 2 mg/kg, pantethine 300 mg/kg
[2] = Table 11, pravastatin 2, riboflavin butyrate 6, d-α-tocopherol acetate 150, ascorbic acid 500 mg/kg
[3] = Table 12, pravastatin 2, d-α-tocopherol acetate 10, ascorbic acid 50 mg/kg

From the text: Beagle dogs aged 5 months were purchased from Covance Research Products Inc. and used after 1 month of quarantine and acclimatisation breeding.
(3) Preparation Forms for Administration, Methods of Preparing the Formulation, and Method of Stocking the Formulation
The calculated amounts of pravastatin or each component of the compositions based on the body weight of each dog were weighed and filled in a gelatin capsule (½ ounce) purchased from TORPAC Inc. Capsules filled with pravastatin were stocked in a refrigerator and, those filled with combination drugs stocked at room temperature until use.
The combination drugs were filled in identical gelatin capsules.
(4) Route of Administration and Administration Period
Pravastatin or combination drug capsules were forcibly orally administered to each of the test animals once daily between 9:00 and 12:30. Animals were fasted for 2 or 3 hr prior to administration of the capsules.
The administration period was 11 successive days.
(5) Preparation of Test Samples and Procedures
Blood (10 mL) was collected from the superficial radial vein 14 and 7 days prior to capsule administration (2 and 1 weeks prior to administration) and 4, 8, and 12 days after administration of the capsule. Animals were fasted for approximately 18 hr prior to blood collection. Collected blood was placed in a test tube, left at room temperature for 0.5-1 hr, before being centrifuged (3,000 rpm for 10 min). The obtained serum was used for assays of blood triglyceride levels according to GK-GPO-POD methods.
A full automatic analyzer (Monarch, Instrumentation Laboratory, Inc.) was used for assay of triglycerides.
The averaged value in each group was obtained from 5 animals per group.

## CC[C@H](C)C(=O)O[C@H]1C[C@H](O)C=C2C=C[C@H](C)[C@H](CC[C@@H](O)C[C@@H](O)CC(=O)O)[C@H]21 [Pravastatin alone, (+)−(3R, 5R)-3,5-dihydroxy-7-[(1S, 2S,6S,8S,8aR)-6-hydroxy-2-methyl-8-[(S)-2-methylbutyryloxy]-1,2,6,7,8,8a-hexahydro-1-naphthyl]heptanoic acid]
[1]
  Blood Triglyceride Levels after administration, 4 days: 108.9
  Blood Triglyceride Levels after administration, 8 days: 104.0
  Blood Triglyceride Levels after administration, 12 days: 91.1
[2]
  Blood Triglyceride Levels after administration, 4 days: 108.9
  Blood Triglyceride Levels after administration, 8 days: 104.0
  Blood Triglyceride Levels after administration, 12 days: 91.1
[3]
  Blood Triglyceride Levels after administration, 4 days: 108.9
  Blood Triglyceride Levels after administration, 8 days: 104.0
  Blood Triglyceride Levels after administration, 12 days: 91.1
